Assay results taken from patent US20230017539A1, “TRI-HETEROCYCLIC COMPOUND AS JAK INHIBITOR, AND USE THEREOF” (CHIA TAI TIANQING PHARMACEUTICAL GROUP CO., LTD., priority 2019, published 2023).

Tests used:
JAK1(h) = target: T1, JAK1(h) (Homo sapiens, UniProt P23458); test: In vitro activity assay of JAK1 kinase (radiometric, [γ-33P]-ATP); format: biochemical; conditions: recombinant human JAK1, 40 min at room temperature
T1 construct: purchased Eurofins, UK
Description: (§1) Recombinant human JAK1, JAK2, JAK3 and Tyk2 […], and main instruments and reagents were all provided by Eurofins, UK.
(§2) Dilution of JAK2, JAK3 and TYK2: 20 mM 3-(N-morpholino)propanesulfonic acid (MOPS), 1 mM EDTA, 0.01% Brij-35.5% glycerol, 0.1% β-mercaptoethanol, and 1 mg/mL BSA; dilution of JAK1: 20 mM TRIS, 0.2 mM EDTA, 0.1% β-mercaptoethanol, and 0.01% Brij-35.5% glycerol. All compounds were prepared as 100% DMSO solutions, and the concentration was brought to 50 times the final assay concentration. A test compound was diluted with a 3-fold gradient, with a total of 9 final concentrations ranging from 10 μM to […]. The DMSO content in the assay reaction was 2%. The working stock solution of the compound was added into the assay wells as a first component of the reaction, and the remaining components were then added according to the protocol detailed for the assay below.
(§3) JAK1(h) was incubated with 20 mM Tris/HC pH 7.5, 0.2 mM EDTA, 500 μM MGEEPLYWSFPAKKK (SEQ ID NO: 1), 10 mM magnesium acetate and [γ-^33P]-ATP (the activity and concentration were tailored as required). The reaction was started by adding a Mg/ATP mixture, and terminated by adding 0.5% phosphoric acid after 40 min of incubation at room temperature. 10 μL of the reactant was then dotted on a P30 filter pad, washed three times with 0.425% phosphoric acid and once with methanol within 4 minutes, and dried, and scintillation counting was performed.
(§4) The IC50 results were obtained by analysis using XLFITS (formula 205) of IDBS company and detailed in Table 1.

[1] = test system: adjuvant-induced arthritis (AIA); test: In vivo efficacy study of adjuvant-induced arthritis (AIA) in rats; set-up: species or system female Lewis rats; conditions: for Inhibition rate of area under clinical score curve, AUC (%): two weeks, rat AIA
Description: Experimental procedures: the compounds of the present application were tested for their therapeutic effect on arthritis using a rat adjuvant arthritis model. Female Lewis rats weighing 160-180 g were anesthetized with isoflurane and injected with 0.1 mL of Mycobacterium tuberculosis suspension subcutaneously in the left hind paw. 13 days after the modeling, the rats were divided into groups and given corresponding test compounds. For example, the female Lewis rats were orally administered different doses (see Table 3-2 for specific doses) of a solution of test compound 1A in a mixed solvent [5% DMSO, 95% (12% SBE-β-CD)] twice a day (10 test animals in each dose group). During two consecutive weeks of administration, the states of the rats were observed, and the foot volume swellings were recorded and scored.

[2] = Pharmacokinetic (PK) experiment in rats; format: in vivo; conditions: Sprague-Dawley (SD), rat, plasma, po, male SD rats; for AUC(0-inf) / Cmax / half-life: fasted, tail vein injection 1 mg/kg and gavage 5 mg/kg, route not given; for AUC(0-inf): read-out: AUC0-inf (area under plasma concentration-time curve from time 0 extrapolated to infinite time); for Cmax: read-out: Cmax (peak concentration); for half-life: read-out: T1/2 (half-life) (converted); for bioavailability: gavage 5 mg/kg vs tail vein injection 1 mg/kg
Description: A test compound was dissolved [5% DMSO, 95% (12% SBE-β-CD)] to give a clear solution, which was administered into male rats (SD) (overnight fasting, 7-8 weeks old) by tail vein injection and by gavage, respectively. After administration of the test compound, blood was collected from the mandibular vein and centrifuged to obtain plasma at 0.117, 0.333, 1, 2, 4, 7 and 24 h in the tail vein injection group (1 mg/kg), and at 0.25, 0.5, 1, 2, 4, 8 and 24 h in the gavage group (5 mg/kg). The plasma concentration was measured using LC-MS/MS method, and the relevant pharmacokinetic parameters were calculated using WinNonlin™ Version 6.3 pharmacokinetic software with non-compartmental model linear logarithmic trapezoidal method.

JAK3(h) = target: T2, JAK3(h) (Homo sapiens, UniProt P52333); test: In vitro activity assay of JAK3 kinase (radiometric, [γ-33P]-ATP); format: biochemical; conditions: recombinant human JAK3, 40 min at room temperature
T2 construct: purchased Eurofins, UK
T2 sequence (P52333 1-1124): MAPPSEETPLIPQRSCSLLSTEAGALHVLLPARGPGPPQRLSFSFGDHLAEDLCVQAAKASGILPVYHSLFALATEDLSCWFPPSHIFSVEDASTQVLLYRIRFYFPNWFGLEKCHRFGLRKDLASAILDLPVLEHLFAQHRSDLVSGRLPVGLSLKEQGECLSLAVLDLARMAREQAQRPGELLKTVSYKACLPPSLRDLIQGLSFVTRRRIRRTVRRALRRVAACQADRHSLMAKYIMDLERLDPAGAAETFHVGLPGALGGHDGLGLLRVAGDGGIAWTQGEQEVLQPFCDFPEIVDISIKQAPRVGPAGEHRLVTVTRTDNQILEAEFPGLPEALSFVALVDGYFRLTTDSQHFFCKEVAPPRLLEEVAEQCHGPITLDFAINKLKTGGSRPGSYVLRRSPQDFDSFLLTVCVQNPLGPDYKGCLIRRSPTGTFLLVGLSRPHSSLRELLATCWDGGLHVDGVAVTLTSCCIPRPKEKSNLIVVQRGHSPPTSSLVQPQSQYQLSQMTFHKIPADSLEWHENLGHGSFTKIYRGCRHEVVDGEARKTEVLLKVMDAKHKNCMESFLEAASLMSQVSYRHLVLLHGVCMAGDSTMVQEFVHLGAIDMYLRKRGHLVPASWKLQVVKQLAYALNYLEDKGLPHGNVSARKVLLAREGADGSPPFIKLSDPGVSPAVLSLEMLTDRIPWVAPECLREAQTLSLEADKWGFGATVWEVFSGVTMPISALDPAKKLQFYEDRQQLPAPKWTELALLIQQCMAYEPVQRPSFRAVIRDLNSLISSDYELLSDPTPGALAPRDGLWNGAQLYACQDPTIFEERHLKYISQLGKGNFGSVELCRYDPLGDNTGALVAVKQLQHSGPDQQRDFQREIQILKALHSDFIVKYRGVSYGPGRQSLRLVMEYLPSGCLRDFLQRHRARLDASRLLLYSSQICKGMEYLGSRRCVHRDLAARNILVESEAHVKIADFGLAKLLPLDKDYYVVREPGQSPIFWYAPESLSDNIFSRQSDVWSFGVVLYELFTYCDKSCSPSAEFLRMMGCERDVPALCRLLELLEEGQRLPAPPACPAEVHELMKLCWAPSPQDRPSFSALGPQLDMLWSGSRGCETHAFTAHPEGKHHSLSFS
Description: as §1, §2
as §3, with “JAK3(h)” for “JAK1(h)”, “8” for “20”, “MOPS” for “Tris/HC”, “7.0,” for “7.5,”, “GGEEEEYFELVKKKK” for “MGEEPLYWSFPAKKK”, “3),” for “1),”
as §4

JAK2(h) = target: T3, JAK2(h) (Homo sapiens, UniProt O60674); test: In vitro activity assay of JAK2 kinase (radiometric, [γ-33P]-ATP); format: biochemical; conditions: recombinant human JAK2, 40 min at room temperature
T3 construct: purchased Eurofins, UK
T3 sequence (O60674 whole entry): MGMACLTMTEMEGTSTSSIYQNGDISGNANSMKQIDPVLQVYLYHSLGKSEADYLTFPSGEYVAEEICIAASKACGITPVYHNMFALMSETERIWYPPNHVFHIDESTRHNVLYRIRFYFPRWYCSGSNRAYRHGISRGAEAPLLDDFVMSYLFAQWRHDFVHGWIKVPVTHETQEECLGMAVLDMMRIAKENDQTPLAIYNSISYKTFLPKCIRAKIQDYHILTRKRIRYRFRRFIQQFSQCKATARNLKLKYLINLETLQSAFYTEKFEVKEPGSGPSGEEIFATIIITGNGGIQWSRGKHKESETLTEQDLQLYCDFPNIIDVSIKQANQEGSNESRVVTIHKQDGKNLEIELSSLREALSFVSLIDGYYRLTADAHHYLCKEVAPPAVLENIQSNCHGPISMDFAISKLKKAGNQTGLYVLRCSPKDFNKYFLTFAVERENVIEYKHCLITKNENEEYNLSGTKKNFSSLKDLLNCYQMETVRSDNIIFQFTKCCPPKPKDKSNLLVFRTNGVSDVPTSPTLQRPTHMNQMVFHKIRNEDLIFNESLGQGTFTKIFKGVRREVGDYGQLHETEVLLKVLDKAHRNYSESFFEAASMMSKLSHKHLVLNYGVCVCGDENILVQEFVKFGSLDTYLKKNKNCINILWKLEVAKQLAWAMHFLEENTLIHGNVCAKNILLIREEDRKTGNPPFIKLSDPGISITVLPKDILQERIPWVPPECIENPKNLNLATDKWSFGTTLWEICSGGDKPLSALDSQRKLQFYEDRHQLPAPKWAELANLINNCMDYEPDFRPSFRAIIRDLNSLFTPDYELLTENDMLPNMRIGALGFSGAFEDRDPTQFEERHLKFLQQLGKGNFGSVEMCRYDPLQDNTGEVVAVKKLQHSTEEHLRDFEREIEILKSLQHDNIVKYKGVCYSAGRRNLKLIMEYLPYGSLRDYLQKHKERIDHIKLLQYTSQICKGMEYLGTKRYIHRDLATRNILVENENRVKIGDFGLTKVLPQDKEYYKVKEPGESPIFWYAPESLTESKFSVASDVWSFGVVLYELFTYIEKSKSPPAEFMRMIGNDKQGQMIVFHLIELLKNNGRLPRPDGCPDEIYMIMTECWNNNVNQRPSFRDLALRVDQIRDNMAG
Description: as §1, §2
JAK2(h) was incubated with 8 mM MOPS pH 7.0, 0.2 mM EDTA, 100 μM […] (SEQ ID NO: 2), 10 mM magnesium acetate and [γ-^33P]-ATP (the activity and concentration were tailored as required). The reaction was started by adding a Mg/ATP mixture, and terminated by adding 0.5% phosphoric acid after 40 min of incubation at room temperature. 10 μL of the reactant was then dotted on a P30 filter pad, washed three times with 0.425% phosphoric acid and once with methanol within 4 minutes, and dried, and scintillation counting was performed.
as §4

TYK2(h) = target: T4, TYK2(h) (Homo sapiens, UniProt P29597); test: In vitro activity assay of TYK2 kinase (radiometric, [γ-33P]-ATP); format: biochemical; conditions: recombinant human Tyk2, 40 min at room temperature
T4 construct: purchased Eurofins, UK
T4 sequence (P29597 whole entry): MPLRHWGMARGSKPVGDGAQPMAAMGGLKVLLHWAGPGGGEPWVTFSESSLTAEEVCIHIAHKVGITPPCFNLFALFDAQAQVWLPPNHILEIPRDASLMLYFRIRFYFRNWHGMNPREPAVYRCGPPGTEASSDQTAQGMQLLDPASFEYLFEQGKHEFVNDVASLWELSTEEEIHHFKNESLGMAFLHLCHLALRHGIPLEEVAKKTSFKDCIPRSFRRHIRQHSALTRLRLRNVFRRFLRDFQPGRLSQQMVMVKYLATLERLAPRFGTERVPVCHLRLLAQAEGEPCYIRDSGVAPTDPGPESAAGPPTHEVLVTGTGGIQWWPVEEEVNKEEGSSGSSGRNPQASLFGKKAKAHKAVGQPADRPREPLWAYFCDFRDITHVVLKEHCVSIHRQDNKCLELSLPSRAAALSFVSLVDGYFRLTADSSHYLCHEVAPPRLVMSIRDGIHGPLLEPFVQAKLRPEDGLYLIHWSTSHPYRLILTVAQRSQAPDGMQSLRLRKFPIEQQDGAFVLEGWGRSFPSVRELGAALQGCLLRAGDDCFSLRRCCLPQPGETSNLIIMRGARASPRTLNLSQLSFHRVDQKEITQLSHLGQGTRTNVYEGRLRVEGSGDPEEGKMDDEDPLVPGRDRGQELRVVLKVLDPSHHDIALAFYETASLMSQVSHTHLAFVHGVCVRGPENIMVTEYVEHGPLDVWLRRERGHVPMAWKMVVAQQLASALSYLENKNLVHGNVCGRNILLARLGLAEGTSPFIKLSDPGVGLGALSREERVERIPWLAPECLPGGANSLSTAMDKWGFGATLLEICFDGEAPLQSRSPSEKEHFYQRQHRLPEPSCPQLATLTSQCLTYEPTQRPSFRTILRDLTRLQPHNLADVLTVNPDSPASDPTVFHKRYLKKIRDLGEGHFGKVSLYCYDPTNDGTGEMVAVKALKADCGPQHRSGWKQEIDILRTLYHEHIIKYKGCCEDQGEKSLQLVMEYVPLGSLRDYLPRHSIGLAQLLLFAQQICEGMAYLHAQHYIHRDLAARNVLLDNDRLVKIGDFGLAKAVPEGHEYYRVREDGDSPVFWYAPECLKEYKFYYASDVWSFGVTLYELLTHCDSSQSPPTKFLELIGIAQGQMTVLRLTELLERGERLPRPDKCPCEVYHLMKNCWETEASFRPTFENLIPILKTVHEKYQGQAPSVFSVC
Description: as §1, §2
TYK2(h) was incubated with 8 mM MOPS pH 7.0, 0.2 mM EDTA, 250 μM GGMEDIYFEFMGGKKK (SEQ ID NO:4), 10 mM magnesium acetate and [γ-^33P]-ATP (the activity and concentration were tailored as required). The reaction was started by adding a Mg/ATP mixture, and terminated by adding 0.5% phosphoric acid after 40 min of incubation at room temperature. 10 μL of the reactant was then dotted on a P30 filter pad, washed three times with 0.425% phosphoric acid and once with methanol within 4 minutes, and dried, and scintillation counting was performed.
as §4

[3] = test system: collagen-induced arthritis (CIA); test: In vivo efficacy study of collagen-induced arthritis (CIA) in rats; set-up: species or system Lewis rats; conditions: for Clinical score (on day 14 of administration) Mean ± SEM / Foot volume (mL, on day 14 of administration) Mean ± SEM: rat CIA
Description: [table] The compounds of the present application were tested for their therapeutic effect on arthritis using a rat collagen-induced arthritis model. Lewis rats were immunized. The day of the first immunization was recorded as day 0, and the subsequent days were recorded in order. The Lewis rats were anesthetized with isoflurane and injected with 50 μL of prepared collagen emulsion (containing 200 μg of CII) subcutaneously in the tail (2-3 cm away from the base of the tail). On day 21, the same volume of the collagen emulsion was injected in the tail in the same manner. Rats in the normal group were not immunized. On day 27 of the modeling, the rats were divided into groups and administered corresponding test compounds. For example, the female Lewis rats were orally administered different doses (see Table 4-1 for specific doses) of a solution of test compound 4 in a mixed solvent [0.5% HPMC E5/0.5% PVP K30/0.2% SLS in water] twice a day (8 test animals in each dose group). During 14 consecutive days of administration, the states of the rats were observed, and the foot volume swellings were recorded and scored.

T1 sequence (P23458 whole entry): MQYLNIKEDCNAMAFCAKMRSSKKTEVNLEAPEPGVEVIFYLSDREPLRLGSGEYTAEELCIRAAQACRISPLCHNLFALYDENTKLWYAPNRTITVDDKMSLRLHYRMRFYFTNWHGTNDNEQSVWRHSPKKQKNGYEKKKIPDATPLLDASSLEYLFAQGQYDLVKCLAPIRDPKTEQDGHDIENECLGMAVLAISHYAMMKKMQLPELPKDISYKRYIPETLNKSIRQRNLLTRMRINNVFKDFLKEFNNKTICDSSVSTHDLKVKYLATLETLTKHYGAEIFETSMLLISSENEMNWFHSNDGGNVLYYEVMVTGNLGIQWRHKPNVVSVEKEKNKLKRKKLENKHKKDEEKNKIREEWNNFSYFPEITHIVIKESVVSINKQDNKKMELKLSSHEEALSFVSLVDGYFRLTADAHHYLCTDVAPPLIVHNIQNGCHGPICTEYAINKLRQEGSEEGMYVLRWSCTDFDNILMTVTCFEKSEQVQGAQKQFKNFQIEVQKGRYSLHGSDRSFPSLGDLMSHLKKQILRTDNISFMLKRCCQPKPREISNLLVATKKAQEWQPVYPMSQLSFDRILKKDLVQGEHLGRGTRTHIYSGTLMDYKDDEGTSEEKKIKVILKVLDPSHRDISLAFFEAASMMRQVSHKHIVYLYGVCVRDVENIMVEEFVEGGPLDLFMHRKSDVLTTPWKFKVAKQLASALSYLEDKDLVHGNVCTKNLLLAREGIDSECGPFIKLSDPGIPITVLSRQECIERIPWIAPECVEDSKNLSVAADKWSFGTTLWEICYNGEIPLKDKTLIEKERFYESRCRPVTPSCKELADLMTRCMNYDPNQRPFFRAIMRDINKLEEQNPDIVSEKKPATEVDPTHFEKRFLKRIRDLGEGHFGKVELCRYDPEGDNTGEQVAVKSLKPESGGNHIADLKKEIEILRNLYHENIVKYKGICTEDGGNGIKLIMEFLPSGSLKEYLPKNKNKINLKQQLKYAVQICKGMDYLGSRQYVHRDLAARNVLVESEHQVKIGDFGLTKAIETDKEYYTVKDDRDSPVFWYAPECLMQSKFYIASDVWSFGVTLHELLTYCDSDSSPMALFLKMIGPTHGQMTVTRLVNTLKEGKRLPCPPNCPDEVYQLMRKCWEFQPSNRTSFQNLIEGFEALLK

IC50 (JAK1(h))	IC50 (JAK3(h))	IC50 (JAK2(h))	IC50 (TYK2(h))	Compound	also measured
1.3 nM	30.8 nM	27 nM	35.8 nM	N#Cc1cc2n(n1)CC(n1cnc3cnc4[nH]ccc4c31)CC2 (single isomer, unassigned) [Compound 1A]	Inhibition rate of area under clinical score curve, AUC (%) ([1]; 3 mg/kg oral twice a day): 49.8%; Mean arthritis clinical score, peak ([1]; 10 mg/kg group, day 13 (day of grouping, start of dosing)): 5.8; Mean arthritis clinical score at the experimental endpoint ([1]; 10 mg/kg group, day 27): 1.3; Inhibition rate of area under clinical score curve, AUC (%) ([1]; 10 mg/kg oral twice a day): 60.3%; Effect on the downward trend of the weight in animals caused by the disease attack ([1]; 3 and 10 mg/kg groups, significant difference from solvent control from day 20): significant relieving effect on the downward trend of the weight; Effect on increase in arthritis clinical score and foot volume ([1]; 3 and 10 mg/kg oral twice a day, dose-dependent): inhibited the increase in arthritis clinical score and foot volume; AUC(0-inf) [2]: 8.51 µM·h; Cmax [2]: 2.94 µM; half-life [2]: 81 min; bioavailability [2]: 41.8%
< 1 nM	25 nM	2 nM	2 nM	Cc1nc2cnc3[nH]ccc3c2n1C1CCc2cc(C#N)nn2C1 (single isomer, unassigned) [Compound 2A]	–
3 nM	217 nM	62 nM	57 nM	N#Cc1cc2n(n1)CC(n1c(C(F)(F)F)nc3cnc4[nH]ccc4c31)CC2 (single isomer, unassigned) [Compound 3A]	–

Second part, the compound before the results:

Compound	IC50 (JAK1(h))	IC50 (JAK3(h))	IC50 (JAK2(h))	IC50 (TYK2(h))	also measured
COc1nc2cnc3[nH]ccc3c2n1[C@@H]1CCc2cc(C#N)nn2C1 [Compound 4]	0.9 nM	27.3 nM	7 nM	50.3 nM	AUC(0-inf) [2]: 67.8 µM·h; Cmax [2]: 10.2 µM; half-life [2]: 219 min; bioavailability [2]: 119%; Clinical score (on day 14 of administration) Mean ± SEM ([3]; 1 mg/kg oral BID): 0.38 ± 0.16; Foot volume (mL, on day 14 of administration) Mean ± SEM ([3]; 1 mg/kg oral BID): 1.32 ± 0.04 mL; Body weight recovery ([3]; 3 mg/kg BID, end of administration at day 14): recovers to the level in the normal group; Foot volume (mL, on day 14 of administration) Mean ± SEM ([3]; 3 mg/kg oral BID): 1.28 mL; Degree of the foot volume swelling ([3]; BID at 1 and 3 mg/kg): reduced in a dose-dependent manner; Effect on clinical scores of the arthritic rats ([3]; BID at 1 and 3 mg/kg, significant difference from solvent control): reduces the clinical scores of the arthritic rats in a dose-dependent manner
C[C@@H](O)c1nc2cnc3[nH]ccc3c2n1[C@@H]1CCc2cc(C#N)nn2C1 [Compound 5]	9 nM	576 nM	250 nM	231 nM	–
COc1nc2cnc3[nH]ccc3c2n1[C@H]1CCc2cc(C#N)nn2C1 [Compound 6]	2.3 nM	73.8 nM	70.2 nM	130 nM	–
C[C@@H](O)c1nc2cnc3[nH]ccc3c2n1[C@H]1CCc2cc(C#N)nn2C1 [Compound 7]	0.3 nM	38.4 nM	53.9 nM	12.4 nM	–
C[C@@H]1C[C@H]2[C@@H]3CCC4=CC(=O)C=C[C@]4(C)[C@@]3(F)[C@@H](O)C[C@]2(C)[C@@]1(O)C(=O)CO [Dexamethasone, reference compound]	–	–	–	–	Clinical score (on day 14 of administration) Mean ± SEM ([3]; 0.1 mg/kg): 0.00 ± 0.00; Foot volume (mL, on day 14 of administration) Mean ± SEM ([3]; 0.1 mg/kg): 1.22 ± 0.042 mL
